The nature of data set [1]: Acute toxicity in mice, single oral dose. The conditions noted are these: mouse, in vivo, p.o., 14-day observation. On the procedure:
The products were administered orally to mice in a single dose. After a 14-day observation period, the mortality was recorded.
The results are expressed in the form of the 50% lethal dose (LD50) in mg.kg^-1.

For data set [2], the target named is T1, postsynaptic alpha-adrenergic receptors (Rattus norvegicus, UniProt P43140).
T1 construct: contraction of the isolated vas deferens; from tissue; host or cells: isolated rat vas deferens
T1 sequence (P43140 1-466): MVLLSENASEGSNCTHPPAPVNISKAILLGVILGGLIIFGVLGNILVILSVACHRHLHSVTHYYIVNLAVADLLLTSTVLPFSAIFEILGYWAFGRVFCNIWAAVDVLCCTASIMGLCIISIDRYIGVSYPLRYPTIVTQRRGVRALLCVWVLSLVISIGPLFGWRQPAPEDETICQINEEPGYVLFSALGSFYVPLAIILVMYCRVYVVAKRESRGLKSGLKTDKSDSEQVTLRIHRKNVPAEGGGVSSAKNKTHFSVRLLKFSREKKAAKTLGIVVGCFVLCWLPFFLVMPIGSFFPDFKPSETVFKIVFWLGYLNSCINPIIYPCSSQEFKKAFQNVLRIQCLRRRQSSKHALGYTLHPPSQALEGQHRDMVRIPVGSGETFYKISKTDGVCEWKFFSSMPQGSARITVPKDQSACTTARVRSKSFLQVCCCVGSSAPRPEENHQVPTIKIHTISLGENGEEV
As to the kind of experiment: Alpha-blocking activity on isolated rat vas deferens. It is filed as cell-based. Particulars: norepinephrine contraction, -log of product concentration at which norepinephrine concentration must be doubled, read-out: pA2 (converted). The text has this: 2. Determination of the Alpha-Blocking Activity on Isolated Rat Vas Deferens
Stimulation of the postsynaptic alpha-adrenergic receptors by norepinephrine causes contraction of the isolated vas deferens. The aim is to find the product concentration in whose presence the norepinephrine concentration must be doubled in order to obtain the same effect as in the absence of said product.
The logarithm of this concentration, with its sign changed, represents the pA2 value of the product.

For data set [3], the system named is toxicity of norepinephrine. As to the kind of experiment: Adrenolytic activity in vivo in rats (protection against norepinephrine lethality). The conditions noted are these: for ED50: Rattus norvegicus, oral 30 minutes before i.v. norepinephrine 0.4 mg.kg^-1, dose protecting 50 percent of animals; for protection against the toxicity of norepinephrine (in words): oral. On the procedure:
4. Determination of the Adrenolytic Activity "In Vivo" in Rats
The intravenous injection of norepinephrine (0.4 mg.kg^-1) in wake rats causes the death of 100 percent of the animals. The prior administration of a substance with an alpha-blocking property makes it possible to reduce this toxicity.
The products claimed were administered orally 30 minutes before the intravenous injection of norepinephrine.
These are expressed in the form of the 50% effective dose (ED50), i.e. the dose, in mg.kg^-1, which protects 50 percent of the animals.

In a further data set the test system is arterial pressure. Kind of data set: Norepinephrine-induced arterial hyperpressure in anesthetized rabbits. The class given is in vivo. The conditions noted are these: Oryctolagus cuniculus, iv, norepinephrine i.v., 50% inhibition of increase in arterial pressure, read-out: Arterial pressure ID50. On the procedure: (§1) 5. Activity on Ureteral Hyperpressure in Rabbits
(§2) An increase in the arterial pressure and the ureteral pressure is induced in anesthetized rabbits by an intravenous injection of norepinephrine. These hyperpressures can be inhibited by the prior administration of molecules with alpha-blocking potential.
The efficacy is assessed by the 50% inhibitory dose (ID50), i.e. the dose which inhibits the increases in arterial and ureteral pressures by 50 percent.

Another data set deals with ureteral pressure. As to the kind of experiment: Norepinephrine-induced ureteral hyperpressure in anesthetized rabbits. It is filed as in vivo. Particulars: for ratio of ID50 arterial pressure to ID50 ureteral pressure: I.V.; for ED50: Oryctolagus cuniculus, iv, norepinephrine i.v., 50% inhibition of increase in ureteral pressure, read-out: Ureteral pressure ID50.
From the text: as §1, §2

The nature of data set [4]: Solubility remark in the isolated rat vas deferens test (Table II). The conditions noted are these: under pA2 in Table II, value N.D. It is filed as physicochemical.

Counter-ions that a name gives are not always drawn.

Usually LD50 stands for the dose expected to kill half of the subjects tested. Low values mean greater toxicity, high ones lower toxicity. As for `CCOc1ccccc1N1CCN(CCOc2cc(C)ccc2C(C)C)CC1` [B 1178, 3-[2-(4-o-ethoxyphenylpiperazin-1-yl)ethoxy]-p-cymene dihydrochloride], the LD50 at 336 h in data set [1] was over 1000 mg/kg. Further, the Kb in data set [2] was 72.4 nM. For the same molecule, in data set [3], the ED50 was found to be 2 mg/kg and the “protection against the toxicity of norepinephrine (in words)” value (“protection against the toxicity” for short) is reported as “excellent protection against the toxicity of norepinephrine”. Besides, in the data set with arterial pressure, the ED50 was determined as 3.9 mg/kg. In the data set with ureteral pressure, the “ratio of ID50 arterial pressure to ID50 ureteral pressure” value (from here on “ratio of ID50 arterial pressure”) was determined as 10.6 and the ED50 stood at 0.37 mg/kg.

Molecule `Cc1ccc(C(C)C)c(OCCN2CCN(c3ccccc3Cl)CC2)c1` [B 1299, 3-[2-(4-o-chlorophenylpiperazin-1-yl)ethoxy]-p-cymene hydrochloride] gave an LD50 at 336 h in data set [1] of over 1000 mg/kg. Further, in data set [2], the Kb was 347 nM. In data set [3], the ED50 worked out at 10 mg/kg and the “protection against the toxicity” value is “excellent protection against the toxicity of norepinephrine”.

In data set [1], `COc1ccc(N2CCN(CCOc3cc(C)ccc3C(C)C)CC2)c(OC)c1` [B 1362] came in with an LD50 at 336 h of 897 mg/kg. Besides, in data set [2], the Kb was over 1000 nM. This molecule also came in with an ED50 in data set [3] of 37.3 mg/kg.

`Cc1ccc(C(C)C)c(OCCN2CCN(c3ccc(F)cc3)CC2)c1` [B.1055, 3-[2-(4-p-fluorophenylpiperazin-1-yl)ethoxy]-p-cymene dihydrochloride] showed an LD50 at 336 h in data set [1] of over 1000 mg/kg. Besides, the Kb in data set [2] was 468 nM. This molecule also showed an ED50 in data set [3] of over 100 mg/kg.

`Cc1ccc(C(C)C)c(OCCN2CCN(c3ccccc3)CC2)c1` [B.1057, 3-[2-(4-phenylpiperazin-1-yl)ethoxy]-p-cymene dihydrochloride] displayed an LD50 at 336 h in data set [1] of over 1000 mg/kg. Moreover, the Kb in data set [2] was 398 nM. For the same molecule, the ED50 in data set [3] was over 100 mg/kg.

Consider `Cc1ccc(C(C)C)c(OCCN2CCN(c3cccc(C(F)(F)F)c3)CC2)c1` [B.1079, 3-[2-(4-α,α,α-trifluoro-m-tolylpiperazin-1-yl)ethoxy]-p-cymene monohydrochloride], for which the LD50 at 336 h in data set [1] is over 1000 mg/kg. The Kb in data set [2] was over 1000 nM. Also, the ED50 in data set [3] is over 100 mg/kg.

As for `CC(=O)c1ccc(N2CCN(CCOc3cc(C)ccc3C(C)C)CC2)cc1` [B.1105, 3-[2-(4-p-acetylphenylpiperazin-1-yl)ethoxy]-p-cymene hydrochloride], in data set [1], the LD50 at 336 h is about 540 mg/kg. Besides, the Kb in data set [2] was 537 nM. Besides, the ED50 in data set [3] was 200 mg/kg.

On to `COc1ccc(N2CCN(CCOc3cc(C)ccc3C(C)C)CC2)cc1` [B.1115, 3-[2-(4-p-methoxyphenylpiperazin-1-yl)ethoxy]-p-cymene dihydrochloride], for which the LD50 at 336 h in data set [1] is over 1000 mg/kg. For the same molecule, the Kb in data set [2] is 288 nM. For the same molecule, in data set [3], the ED50 was determined as 200 mg/kg.

For the molecule `Cc1ccc(C(C)C)c(OCCN2CCN(c3ccc(Cl)cc3C)CC2)c1` [B.1152, 3-[2-4-(4-chloro-2-methyl)phenylpiperazine-1-yl)ethoxy]-p-cymene hydrochloride], the LD50 at 336 h in data set [1] is over 1000 mg/kg. The molecule further came in with an ED50 in data set [3] of over 100 mg/kg. Moreover, the solubility remark entry in data set [4] was “insoluble”.

For the molecule `COc1ccccc1N1CCN(CCOc2cc(C)ccc2C(C)C)CC1` [B.1168, 3-[2-(4-o-methoxyphenylpiperazin-1-yl)-ethoxy]-p-cymene dihydrochloride], in data set [1], the LD50 at 336 h was over 1000 mg/kg. In addition, the Kb in data set [2] was 195 nM. Besides, in data set [3], the ED50 was 3 mg/kg and the “protection against the toxicity” value was “excellent protection against the toxicity of norepinephrine”.

`Cc1ccc(C(C)C)c(OCCN2CCN(c3ccc(Cl)cc3)CC2)c1` [B.1191, 3-[2-(4-p-chlorophenylpiperazin-1-yl)ethoxy]-p-cymene dihydrochloride] returned an LD50 at 336 h in data set [1] of over 1000 mg/kg. Besides, in data set [2], the Kb is 331 nM. The molecule also displayed an ED50 in data set [3] of over 100 mg/kg.

In turn, `CCOc1cccc(N2CCN(CCOc3cc(C)ccc3C(C)C)CC2)c1` [B.1204, 3-[2-(4-m-ethoxyphenylpiperazin-1-yl)ethoxy]-p-cymene hydrochlroide] gave an LD50 at 336 h in data set [1] of over 1000 mg/kg. The Kb in data set [2] was 1000 nM. The ED50 in data set [3] worked out at 56 mg/kg.

In turn, `COc1cccc(N2CCN(CCOc3cc(C)ccc3C(C)C)CC2)c1` [B.1206, 3-[2-(4-m-methoxyphenylpiperazin-1-yl)ethoxy]-p-cymene hydrochloride] yielded an LD50 at 336 h in data set [1] of over 1000 mg/kg. In addition, the Kb in data set [2] was 170 nM. In data set [3], this molecule registered an ED50 of 100 mg/kg.

In data set [1], `Cc1ccc(C(C)C)c(OCCN2CCN(c3ccccc3C)CC2)c1` [B.1213, 3-[2-(4-o-methylphenylpiperazin-1-yl)-ethoxy]-p-cymene hydrochloride] gave an LD50 at 336 h of over 1000 mg/kg. Further, the Kb in data set [2] was 1100 nM. The molecule also displayed an ED50 in data set [3] of 15 mg/kg.

Molecule `Cc1ccc(C(C)C)c(OCCN2CCN(c3cc(Cl)ccc3C)CC2)c1` [B.1256] showed an LD50 at 336 h in data set [1] of over 1000 mg/kg. In addition, in data set [2], the Kb is over 1000 nM. Also, the ED50 in data set [3] is 121 mg/kg.

`Cc1ccc(C(C)C)c(OCCN2CCN(c3ccccc3F)CC2)c1` [B.1261, 3-[2-(4-o-fluorophenylpiperazin-1-yl)ethoxy]-p-cymene hydrochloride] gave an LD50 at 336 h in data set [1] of over 1000 mg/kg. In data set [2], the Kb was 363 nM. The molecule also gave an ED50 in data set [3] of 20 mg/kg.

Molecule `Cc1ccc(C(C)C)c(OCCN2CCN(c3c(C)cccc3Cl)CC2)c1` [B.1326] gave an LD50 at 336 h in data set [1] of over 1000 mg/kg. Besides, the Kb in data set [2] is over 1000 nM. The ED50 in data set [3] is over 200 mg/kg.

For `Cc1ccc(C(C)C)c(OCCN2CCN(c3ccccc3O)CC2)c1` [B.1338], the LD50 at 336 h in data set [1] is over 1000 mg/kg. For the same molecule, the Kb in data set [2] is 40.7 nM. Also, the ED50 is 6.4 mg/kg in data set [3], 19 mg/kg in the data set on arterial pressure and 1.6 mg/kg with ureteral pressure. Moreover, the “ratio of ID50 arterial pressure” value in the data set with ureteral pressure was found to be 11.8.

As to `CCCCOc1ccccc1N1CCN(CCOc2cc(C)ccc2C(C)C)CC1` [B.1340], the LD50 at 336 h in data set [1] was over 1000 mg/kg. The Kb in data set [2] was over 1000 nM. In data set [3], this molecule gave an ED50 of 11.3 mg/kg.

In the case of `Cc1ccc(C(C)C)c(OCCN2CCN(c3cccc(O)c3)CC2)c1` [B.1343], the LD50 at 336 h in data set [1] is over 1000 mg/kg. The Kb in data set [2] was 832 nM. In data set [3], this molecule yielded an ED50 of 142 mg/kg.

With `Cc1ccc(N2CCN(CCOc3cc(C)ccc3C(C)C)CC2)c(Cl)c1` [B.1353], the LD50 at 336 h in data set [1] was over 1000 mg/kg. Further, in data set [2], the Kb is over 1000 nM. Besides, in data set [3], the ED50 was found to be 30.9 mg/kg.

In data set [1], `CCCCCOc1ccccc1N1CCN(CCOc2cc(C)ccc2C(C)C)CC1` [B.1356] came in with an LD50 at 336 h of over 1000 mg/kg. In addition, the Kb in data set [2] is over 1000 nM. Moreover, the ED50 in data set [3] turned out to be 31.1 mg/kg.

In data set [1], `CCCOc1ccccc1N1CCN(CCOc2cc(C)ccc2C(C)C)CC1` [B.1358] gave an LD50 at 336 h of over 1000 mg/kg. The Kb in data set [2] is over 1000 nM. Besides, in data set [3], the ED50 amounted to 2.1 mg/kg and the “protection against the toxicity” value is on record as “excellent protection against the toxicity of norepinephrine”. Further, in the data set on arterial pressure, the ED50 is 5 mg/kg. Also, in the data set on ureteral pressure, the “ratio of ID50 arterial pressure” value came to 4.1 and the ED50 stood at 1.22 mg/kg.

`COc1ccc(OC)c(N2CCN(CCOc3cc(C)ccc3C(C)C)CC2)c1` [B.1387] yielded an LD50 at 336 h in data set [1] of over 1000 mg/kg. The Kb in data set [2] is 355 nM. In data set [3], the ED50 was found to be 6.78 mg/kg and the “protection against the toxicity” value was “excellent protection against the toxicity of norepinephrine”.

Take `Cc1ccc(C(C)C)c(OCCN2CCN(c3c(C)cccc3C)CC2)c1` [B.1393]: the LD50 at 336 h in data set [1] is over 1000 mg/kg. For the same molecule, in data set [2], the Kb is over 1000 nM. Further, the ED50 in data set [3] is over 200 mg/kg.

These data come from patent US5110816A, “3-[2-(4-arylpiperazin-1-yl)ethoxy]-p-cymene, the method of preparing and composition thereof” (Institut de Recherches Chimiques et Biologiques Appliquees …, priority 1988, dated 1992).
